Results reported in patent publication US11229635B2, “Method of treating fibrosis” (BCN Biosciences L.L.C., priority 2016, dated 2022).

How the values were obtained:
[1] = system: canonical Wnt-β catenin signaling; assay: TCF/LEF luciferase reporter assay in HEK293 cells; assay type: cell-based; settings: 10 mM, 24 h, positive control
Description: LiCl (10 mM) treatment was used as positive control for luciferase activity. Luciferase activity was determined after 24 h using a Dual-Luciferase® Reporter Assay System (Promega) as per manufacturer's protocol. HEK293 cells containing a FOPFlash construct were used as a negative control.

[2] = system: cancer cell lines (leukemia, breast, CNS, colon, melanoma, non-small cell lung, ovarian, prostate, renal); assay: NCI cancer cell line growth screen (percent growth over 48 h, sulforhodamine B); assay type: cell-based
blood platelets = assay: Platelet count in normal mice; assay type: in vivo, mouse; settings: eight days oral or subcutaneous, 75-800 mg/kg/day
Description: Normal mice were treated with BCN057 for eight days by oral administration or subcutaneous injection. Dose groups included 75 mg/kg/day, 200 mg/kg/day, 400 mg/kg/day, 500 mg/kg/day, and 800 mg/kg/day

plasma cytokines = assay: Mouse Cytokine panel ELISA Array of plasma after irradiation; assay type: in vivo; settings: irradiated mice (7 G), 200 mg/kg SC Day 1 to 7, blood Day 8
Description: Mice were irradiated on Day 0. Animals were dosed with drug for 7 consecutive days (Day 1 to 7) at 200 mg/kg SC, with terminal blood collection on Day 8. Plasma from 3 mice was pooled for each condition Y axis represents relative absorbance units.
The plasma was tested with the Mouse Cytokine panel ELISA Array panel—by SIGNOSIS™

hematopoietic system = assay: Recovery of the hematopoietic system following 6 Gy irradiation; assay type: in vivo; settings: C3H mice, s.c. at 24, 48, 72, 96, and 120 hrs
Text: Recovery of the hematopoietic system following 6 Gy irradiation of C3H mice (n=4) with BCN057 treatment (s.c.) at 24, 48, 72, 96, and 120 hrs. RBC- red blood cells (M/uL), HB-hemoglobin (g/dL), and HCT-hematocrit (%). B: recovery of the hematopoietic system following 6 Gy irradiation of C3H mice (n=4) with BCN057 treatment (s.c.) at 24, 48, 72, 96, and 120 hrs. WBC-white blood cells, NE-neutrophils, LY-lymphocytes. C: platelet (PLT) recovery following 6 Gy irradiation of C3H mice (n=4) with BCN057 treatment (s.c.) at 24,48,72,96, and 120 hrs; p<0.05 with a 1-tail, Student t-test.

[3] = Solubility of BCN057 in aqueous formulations; assay type: physicochemical
Description: Several formulations were developed to solubilize BCN057 in aqueous solution at physiologically compatible pHs. These include 100 mM methanesulfonic acid/10% povidone (PVP); 100 mM MSA/2% benzyl alcohol/2% N-methylpyrrolidone (NMP); and, 100 mM MSA/10% ethanol/1% Poloxamer 188.
Several suitable formulations were developed for intravenous, subcutaneous and oral delivery of therapeutic levels of BCN057. These include 30 wt % Captisol (SBE-beta-CD) and 100 mM MSA at pH 4.1 (adjusted with 1.0 N NaOH).

[4] = system: bone marrow hematopoietic stem cells (HSCs); assay: Total body irradiation survival (hematopoietic suppression); assay type: in vivo, C3H/HeN mice; settings: 7.75 Gy TBI, 30 day; male 50 mg/kg, female 25 mg/kg C3H/HeN mice
Description: FIG. 8A-C: (A) Kaplan Meier Plot of Male C3H/HeN mice 7.75Gy 30 Day TBI (n=30) 50 mg/kg BCN057. (B). Kaplan Meier Plot of Female C3H/HeN mice 7.75Gy 30 Day TBI (n=10) 25 mg/kg BCN057. (C) Cytokine Profile in Plasma Male C3H/HeN mice 7.75Gy TBI Day 8 receiving BCN057.
7.75 Gy radiation is used to ablate bone marrow hematopoietic stem cells (HSCs) in these strains of mice. […] Lethality from bone marrow suppression occurs in the 14-25 day region due to the life cycle of approximately 2 weeks for RBC and inability to replace them without HSCs
7.73 Gy radiation is used to ablate bone marrow HSCs in the C3H strain of mice.

[5] = system: radiation dermatitis (erythema, edema); assay: Draize scoring of dermal radiation sites, dermal dosing 10 mg/mL Day 0 to 6; assay type: in vivo; settings: Avg of Days 1-6 and 8

| SMILES | luciferase activity [1] | cancer cell growth vs control (no drug) ([2]; 10 uM, 48 h, Leukemia, prostate and kidney cancer) | cancer cell growth vs untreated control ([2]; breast cancer, lung carcinoma, prostate, CNS, melanoma, ovarian, renal and colon cancer lines (FIG. 2)) | platelet production (blood platelets) | plasma cytokine profile (plasma cytokines) | hematopoietic recovery (RBC, HB, HCT, WBC, NE, LY, PLT) (hematopoietic system) | solubility ([3]; 30 wt % Captisol (SBE-beta-CD) and 100 mM MSA, up to pH 4.1) | solubility ([3]; addition of 100 mM lactic acid to the MSA mixtures) | lethality from bone marrow suppression [4] | Average Draize score Edema [5] | Average Draize score Edema Site 2 [5] | Average Draize score Edema Site 3 [5] | Average Draize score Edema Site 4 [5] | Average Draize score Edema Site 5 [5] | Average Draize score Edema Site 6 [5] | Average Draize score Erythema Site 2 [5] | Average Draize score Erythema Site 3 [5] | Average Draize score Erythema Site 4 [5] | Average Draize score Erythema Site 5 [5] | Average Draize score Erythema Site 6 [5] |
| --- | --- | --- | --- | --- | --- | --- | --- | --- | --- | --- | --- | --- | --- | --- | --- | --- | --- | --- | --- | --- |
| [Cl-].[Li+] [LiCl, reference compound] | significantly increased luciferase activity | – | – | – | – | – | – | – | – | – | – | – | – | – | – | – | – | – | – | – |
| COc1ccc2cc(-c3nc4ccc(C)cn4c3NCc3ccco3)c(=O)[nH]c2c1 [BCN057, 3-(3((furan-2-ylmethyl)ammo)-6-methylimidazo[1,2-α]pyridine-2-yl)-6-methoxyquinolin-2(1H)-one] | – | inhibitory | susceptible | induces platelet production in a dose dependent fashion | restores the cytokine profile to similar to that of the control | evidence of improving hematopoietic recovery | excellent solubility | improved solubility | sufficient to prevent lethality from bone marrow suppression | 0 | 0 | 0.5714 | 0 | 0.4286 | 0 | 0.1429 | 1.286 | 0.1429 | 1.429 | 0.4286 |
